Drawing on US20250230155A1 (Vanderbilt University, priority 2021, published 2025), this text covers Emax and EC50 for 27 molecules.

This assay deals with T1, human mAChR M4 (Homo sapiens, UniProt P08173).
T1 construct: expressed in transfected cells
T1 sequence (P08173 1-479): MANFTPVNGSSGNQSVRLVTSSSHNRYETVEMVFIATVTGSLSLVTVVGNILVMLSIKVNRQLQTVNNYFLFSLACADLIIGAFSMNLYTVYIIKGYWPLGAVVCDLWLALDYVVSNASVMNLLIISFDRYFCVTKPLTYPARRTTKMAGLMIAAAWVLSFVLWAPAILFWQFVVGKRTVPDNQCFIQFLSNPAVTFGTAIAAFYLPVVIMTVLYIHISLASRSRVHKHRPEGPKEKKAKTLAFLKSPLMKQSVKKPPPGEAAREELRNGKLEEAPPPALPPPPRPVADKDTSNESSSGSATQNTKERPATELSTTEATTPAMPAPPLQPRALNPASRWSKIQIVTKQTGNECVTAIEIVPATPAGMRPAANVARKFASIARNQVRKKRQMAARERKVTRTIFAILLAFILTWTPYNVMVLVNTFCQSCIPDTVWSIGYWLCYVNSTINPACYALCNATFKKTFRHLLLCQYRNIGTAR
The assay is described as follows: mAChR M4 cell-based functional assay (calcium mobilization, CHO-K1 hM4-Gqi5 cells). The following applies: for Emax at 30 µM: CHO-K1, % ACh maximum at 30 μM, human M4; for EC50: positive allosteric modulator activity, increase in the EC20 acetylcholine response, CHO-K1 hM4-Gqi5 cells, read-out: Human M4 EC50. The method, boiled down:
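CHO-K1 cells stably expressing human M4 with chimeric Gqi5, loaded with Fluo-4 AM; compounds given as 11-point 1:3 curves and calcium flux read on FDSS at 1 Hz. Acetylcholine EC20 added at 144 s, EC80 at 230 s; agonist, PAM (EC20 potentiation) and antagonist (EC80 inhibition) EC50/Emax from four-parameter fits.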

Consider `Cc1nc(C)c(C)c(N2CCc3ncc(-c4ccc(N5CCN(C)CC5)nc4)cc3C2)n1` [compound 233, 3-(6-(4-methylpiperazin-1-yl)pyridin-3-yl)-6-(2,5,6-trimethylpyrimidin-4-yl)-5,6,7,8-tetrahydro-1,6-naphthyridine], for which the Emax at 30 µM amounted to 80% and the EC50 is 0.366 µM. On the same counts, the results for `Cc1c(C#N)nnc(N2CCc3ncc(-c4cccnc4F)cc3C2)c1C` [compound 54, 6-[3-(2-fluoro-3-pyridyl)-7,8-dihydro-5H-1,6-naphthyridin-6-yl]-4,5-dimethyl-pyridazine-3-carbonitrile] are 70% and 0.391 µM. For `Cc1cc(C#N)cnc1N1CCc2ncc(-c3cnn(C)c3)cc2C1` [compound 104, 5-methyl-6-[3-(1-methylpyrazol-4-yl)-7,8-dihydro-5H-1,6-naphthyridin-6-yl]pyridine-3-carbonitrile], the Emax at 30 µM stood at 99% and the EC50 was 0.216 µM. The like results for `Cc1cnccc1Nc1cnc2c(c1)CN(c1nnc(C#N)c(C)c1C)CC2` [Example 618, 4,5-dimethyl-6-(3-((3-methylpyridin-4-yl)amino)-7,8-dihydro-1,6-naphthyridin-6(5)-yl)pyridazine-3-carbonitrile] were, in that order, 74% and 0.391 µM. On the same counts, the results for `Cc1cc(C(=O)NCc2ccc3c(c2)CC(=O)N3)cnc1N1CCc2ncccc2C1` [compound 154, 6-(7,8-dihydro-5H-1,6-naphthyridin-6-yl)-5-methyl-N-[(2-oxoindolin-5-yl)methyl]pyridine-3-carboxamide] are 47% and 6.56 µM. Consider `Cc1cc(C(=O)N2CC(C(F)F)C2)nnc1N1CCc2ncc(C(F)(F)F)cc2C1` [Example 522, (3-(difluoromethyl)azetidin-1-yl)(5-methyl-6-(3-(trifluoromethyl)-7,8-dihydro-1,6-naphthyridin-6(5H)-yl)pyridazin-3-yl)methanone], for which the Emax at 30 µM turned out to be 109% and the EC50 worked out at 0.168 µM. The like results for `Cc1cc(C(=O)N(C)Cc2ccncc2)nnc1N1CCc2ncc(C(F)(F)F)cc2C1` [Example 506, N,5-dimethyl-N-(pyridin-4-ylmethyl)-6-(3-(trifluoromethyl)-7,8-dihydro-1,6-naphthyridin-6(5H)-yl)pyridazine-3-carboxamide] were, in that order, 84% and 2.81 µM. On the same counts, the results for `COc1cc(CNC(=O)c2cnc(N3CCc4ncccc4C3)c(C)c2)ccc1F` [compound 152, 6-(7,8-dihydro-5H-1,6-naphthyridin-6-yl)-N-[(4-fluoro-3-methoxy-phenyl)methyl]-5-methyl-pyridine-3-carboxamide] are 64% and 2.12 µM.

Consider `Cc1cc(C(=O)N2CC(N(C)C)C2)nnc1N1CCc2ncc(N3CCCn4nccc43)cc2C1` [Example 518, (6-(3-(6,7-dihydropyrazolo[1,5-a]pyrimidin-4(5H)-yl)-7,8-dihydro-1,6-naphthyridin-6(5H)-yl)-5-methylpyridazin-3-yl)(3-(dimethylamino)azetidin-1-yl)methanone], for which the Emax at 30 µM stood at 102% and the 50% effective concentration (EC50) was determined as 0.032 µM. The like results for `Cc1nc(Cl)c(C)c(N2Cc3cc(N4CCCn5nccc54)cnc3C(C)(C)C2)n1` [compound 250, 6-(6-chloro-2,5-dimethylpyrimidin-4-yl)-3-(6,7-dihydropyrazolo[1,5-a]pyrimidin-4(5H)-yl)-8,8-dimethyl-5,6,7,8-tetrahydro-1,6-naphthyridine] were, in that order, 66% and 0.616 µM.

Turning to `Cc1cc(C#N)cnc1N1CCc2ncc(Nc3ccnn3C)cc2C1` [Example 306, 5-methyl-6-(3-((1-methyl-1H-pyrazol-5-yl)amino)-7,8-dihydro-1,6-naphthyridin-6(5H)-yl)nicotinonitrile], the Emax at 30 µM came out at 109% and the EC50 is 0.023 µM. On the same counts, the results for `Cc1cc(C(=O)NCc2cnn3ccccc23)cnc1N1CCc2ncccc2C1` [compound 69, 6-(7,8-dihydro-5H-1,6-naphthyridin-6-yl)-5-methyl-N-(pyrazolo[1,5-a]pyridin-3-ylmethyl)pyridine-3-carboxamide] are 80% and 2.38 µM.

As for `Cc1cc(C#N)cnc1N1CCc2ncc(-c3cncs3)cc2C1` [compound 95, 5-methyl-6-(3-thiazol-5-yl-7,8-dihydro-5H-1,6-naphthyridin-6-yl)pyridine-3-carbonitrile], the Emax at 30 µM worked out at 98% and the EC50 amounted to 0.0841 µM. For `Cc1cc(C(=O)N2CC(C)(F)C2)nnc1N1CCc2ncc(-n3cccn3)cc2C1` [Example 569, (6-(3-(1H-pyrazol-1-yl)-7,8-dihydro-1,6-naphthyridin-6(5H)-yl)-5-methylpyridazin-3-yl)(3-fluoro-3-methylazetidin-1-yl)methanone], the Emax at 30 µM amounted to 78% and the half-maximal effective concentration (EC50) was 0.2 µM. In the case of `Cc1cc(C#N)cnc1N1CCc2ncc(Nc3ccccc3F)cc2C1` [Example 7], the Emax at 30 µM stood at 94% and the EC50 was found to be 0.0905 µM. On the same counts, the results for `COc1nc(C)nc(N2CCc3ncc(-c4cn(C)nc4C)cc3C2)c1C` [compound 196, 3-(1,3-dimethylpyrazol-4-yl)-6-(6-methoxy-2,5-dimethyl-pyrimidin-4-yl)-7,8-dihydro-5H-1,6-naphthyridine] are 70% and 1.17 µM.

For the molecule `COCCOc1cnc2c(c1)CN(c1ncc(C#N)cc1C)CC2` [Example 434, 6-(3-(2-methoxyethoxy)-7,8-dihydro-1,6-naphthyridin-6(5H)-yl)-5-methylnicotinonitrile], the Emax at 30 µM is 102% and the EC50 amounted to 0.958 µM. The like results for `[2H]C1([2H])Cc2ncc(Nc3ccncc3C)cc2C([2H])([2H])N1c1nnc(C#N)c(C)c1C` [Example 609, 4,5-dimethyl-6-(3-((3-methylpyridin-4-yl)amino)-7,8-dihydro-1,6-naphthyridin-6(5H)-yl-5,5,7,7-d4)pyridazine-3-carbonitrile] were, in that order, 56% and 0.753 µM. On to `Cc1cnc(F)cc1-c1cnc2c(c1)CN(c1nnc(C#N)c(C)c1C)CC2` [compound 72, 6-[3-(2-fluoro-5-methyl-4-pyridyl)-7,8-dihydro-5H-1,6-naphthyridin-6-yl]-4,5-dimethyl-pyridazine-3-carbonitrile], for which the Emax at 30 µM is 78% and the concentration for a half-maximal effect (EC50) was 0.233 µM.

Take `FC(F)(F)c1cnc2c(c1)CN(c1nc(Cl)nc3c1CCC3)CC2` [compound 259, 6-(2-chloro-6,7-dihydro-5H-cyclopenta[d]pyrimidin-4-yl)-3-(trifluoromethyl)-5,6,7,8-tetrahydro-1,6-naphthyridine]: the maximum response (Emax) at 30 µM came out at 91% and the half-maximal effective concentration (EC50) is 0.217 µM.

For the molecule `Cc1cc(C(=O)NC(C)C)cnc1N1CCc2ncccc2C1` [compound 58, 6-(7,8-dihydro-5H-1,6-naphthyridin-6-yl)-N-isopropyl-5-methyl-pyridine-3-carboxamide], the Emax at 30 µM came to 51% and the concentration giving a half-maximal response (EC50) was not below 10 µM. The like results for `Cc1ccc(OCCOc2cnc3c(c2)CN(c2ncc(C#N)cc2C)CC3)cc1` [Example 431, 5-methyl-6-(3-(2-(p-tolyloxy)ethoxy)-7,8-dihydro-1,6-naphthyridin-6(5H)-yl)nicotinonitrile] were, in that order, 47% and not below 10 µM. On the same counts, the results for `Cc1nc(Cl)c(C)c(N2CCc3ncc(-c4c(C)noc4C)cc3C2)n1` [compound 197, 4-[6-(6-chloro-2,5-dimethyl-pyrimidin-4-yl)-7,8-dihydro-5H-1,6-naphthyridin-3-yl]-3,5-dimethyl-isoxazole] are 92% and 0.063 µM. The like results for `Cc1c(C#N)nnc(N2CCc3ncc(-c4cncnc4)cc3C2)c1C` [compound 49, 4,5-dimethyl-6-(3-pyrimidin-5-yl-7,8-dihydro-5H-1,6-naphthyridin-6-yl)pyridazine-3-carbonitrile] were, in that order, 60% and 0.868 µM. For `Cc1ncc(-c2cnc3c(c2)CN(c2nnc(C#N)cc2C)CC3)s1` [Example 390, 5-methyl-6-(3-(2-methylthiazol-5-yl)-7,8-dihydro-1,6-naphthyridin-6(5H)-yl)pyridazine-3-carbonitrile], the Emax at 30 µM turned out to be 78% and the EC50 amounted to 0.433 µM. On the same counts, the results for `Cc1cc(C#N)cnc1N1CCc2ncc(N3CCN(C)CC3=O)cc2C1` [Example 420, 5-methyl-6-(3-(4-methyl-2-oxopiperazin-1-yl)-7,8-dihydro-1,6-naphthyridin-6(5H)-yl)nicotinonitrile] are 43% and not below 10 µM. On to `Clc1nc2c(c(N3CCc4ncc(N5CCCn6nccc65)cc4C3)n1)COC2` [compound 282, 2-chloro-4-(3-(6,7-dihydropyrazolo[1,5-a]pyrimidin-4(5H)-yl)-7,8-dihydro-1,6-naphthyridin-6(5H)-yl)-5,7-dihydrofuro[3,4-d]pyrimidine], for which the EC50 turned out to be 0.302 µM.
